Reference: US20230033021A1, “TREATMENT OF A DISEASE OF THE GASTROINTESTINAL TRACT WITH AN INTEGRIN INHIBITOR” (Progenity, Inc., priority 2018, published 2023)
One block for each molecule: values may come before it.

Assays:
[1] = Pharmacokinetic study of oral vs intra-cecal administration of tacrolimus: blood, rectal content, GI tissue and luminal content (Example 13); set-up: species or system Yorkshire-Cross farm swine; conditions: female, Yorkshire-Cross, swine, in vivo, 0.09 mg/kg
Text: No further randomization procedure was employed.

IL-6 = conditions: low dose PO group (15 mg/kg), by 12 h post-dose
GM-CSF = GM-CSF in plasma and colon tissue by ELISA, DSS-induced colitis mouse model; assay type: in vivo, mice; conditions: between IC and PO treatment groups, plasma or colon tissue (data not shown)

Tissue(mean) (ng/g)/Trough(12 hr)(ng/mL) Ratio [1]: 0
Structure (SMILES): C=CC[C@@H]1/C=C(\C)C[C@H](C)C[C@H](OC)[C@H]2O[C@@](O)(C(=O)C(=O)N3CCCC[C@H]3C(=O)O[C@H](/C(C)=C/[C@@H]3CC[C@@H](O)[C@H](OC)C3)[C@H](C)[C@@H](O)CC1=O)[C@H](C)C[C@@H]2OC [tacrolimus]

Structure (SMILES): C[C@@H]1CCN(C(=O)CC#N)C[C@@H]1N(C)c1ncnc2[nH]ccc12.O=C(O)CC(O)(CC(=O)O)C(=O)O [tofacitinib citrate]
IL-6 expression in colon tissue (IL-6): Recovery from IL-6 inhibition

Structure (SMILES): C[C@@H]1CCN(C(=O)CC#N)C[C@@H]1N(C)c1ncnc2[nH]ccc12 [tofacitinib]
GM-CSF levels (GM-CSF): nor was there a significant difference
